# Measured values: US8067537B2, “Composition and method for treatment of stomatitis” (Kyowa Hakko Bio Co., Ltd., priority 2004, dated 2011)
# System: chronic stomatitis
# Test: Effectiveness of glutathione in treatment of cat stomatitis
# Assay type: in vivo
# [1] = one cat with AIDS and serious chronic stomatitis, 30 mg/kg per day mixed in the feed for two weeks
Compound,"improvement of chronic stomatitis (same cat, nearly 10 years of treatment before the glutathione)",appetite [1],fauces erosion and gum inflammation [1]
interferon [reference compound],no improvement,–,–
"N[C@@H](CCC(=O)N[C@@H](CS)C(=O)NCC(=O)O)C(=O)O [reduced glutathione, gamma-L-Glu-L-Cys-Gly]",–,improved,dramatic improvements
